Entries after “also recorded” stand apart in the source; their conditions may differ.
Legend:
[1] = test system: E. coli CFT073; assay: Antimicrobial activity assay in the presence of lipocalin 2; format: cell-based, Escherichia coli; details: conjugate 100 nM, lcn2 1 μM, M9 minimal media, 37° C., 24 h
Experimental: The bacterial cultures were grown in modified M9 minimal medium (Blango, M. G.; Ott, E. M.; Erman, A.; Veranic, P.; Mulvey, M. A. Forced Resurgence and Targeting of Intracellular Uropathogenic Escherichia coli Reservoirs. PLoS One 2014, 9, e93327-e93335) (Na2HPO4 6.8 g/L, KH2PO4 3 g/L, NaCl 0.5 g/L, NH4Cl 1 g/L, 0.4% glucose, 2 mM MgSO4, 0.1 mM CaCl2, 0.2% casein amino acids, and 16.5 μg/mL of thiamine) overnight. […] The cultures were serially diluted to an OD600 value of 0.00001 in fresh modified M9 minimal medium. Lipocalin 2 (Lcn2) was diluted into PBS buffer to a concentration of 20 μM upon arrival and frozen at −20° C. until use. Bovine serum albumin (BSA, Sigma-Aldrich) was prepared in PBS buffer to achieve a concentration of 20 μM. […] The bacterial growth was determined by measuring OD600 using the plate reader. […] The resulting mean OD600 was reported, and the error bars were the standard deviation. […] In contrast, Lcn2 had no effect of the antibacterial activity of MGE-Amp, MGE-Amx, DGE-Amp, or DGE-Amx.

[2] = test system: Salmonella enterica serovar Typhimurium (STM) IR715; assay: Antibacterial activity assay, Salmonella Typhimurium; format: cell-based; details: 50% MHB, 100 μM 2,2′-dipyridyl, 30° C., t=19 h
Experimental: FIGS. 12A and 12B show exemplary antibacterial activities of Ent-Amp, Ent-Amx, MGE-Amp, MGE-Amx, DGE-Amp, and DGE-Amx against Salmonella enterica serovar Typhimurium (STM) IR715 (50% MHB with 100 μM 2,2′-dipyridyl to provide conditions of iron limitation, 30° C., t=19 h). (FIG. 12A) Antibacterial activity of Amp and the Amp-containing conjugates (Ent-Amp, MGE-Amp, and DGE-Amp). […] (FIG. 12B) Antibacterial activity of Amx and the Amx-containing conjugates (Ent-Amx, MGE-Amx, and DGE-Amx).

[3] = test system: E. coli CFT073; assay: Antimicrobial activity assay, E. coli CFT073; format: cell-based, Escherichia coli; details: Fe(III)-loaded versus apo conjugates, 50% MHB, 200 μM DP, 30° C., t=19 h
Experimental: (§1) Overnight cultures of the bacterial strains were prepared by inoculating 5 mL of LB with the bacterial freezer stocks and the cultures were incubated at 37° C. in a tabletop incubator shaker set at 150 rpm. The overnight culture grew to saturation and was diluted 1:100 into 5 mL of fresh LB medium containing DP (200 μM) and incubated at 37° C. with shaking at 150 rpm until OD600 reached 0.6. The cultures were subsequently diluted to an OD600 value of 0.001 in 50% MHB medium (11.5 g/L) with or without DP (200 μM). No antibiotic marker was included in these cultures. A 90-μL aliquot of the diluted culture was combined with a 10-μL aliquot of a 10× solution of the tested compounds in a 96-well plate, which was wrapped in […] and incubated at 30° C. with shaking at 150 rpm for 19 h. Bacterial growth was determined by measuring OD600 using a BIOTEK SYNERGY HT plate reader. Each well condition was prepared in duplicate, and at least three independent replicates were conducted on different days. The resulting mean OD600 are reported and the error bars are the standard deviation.
In another exemplary experiment, antibacterial activities of the conjugates were tested against E. coli CFT073 in 50% MHB at 30° C., t=19 h. DP (200 μM) was added to provide conditions of iron limitation.
In another exemplary experiment, antibacterial activities of Fe(III)-loaded or apo Ent-β-lactam conjugates (Ent-Amp and Ent-Amx) and their glucosylated derivatives (MGE-Amp, MGE-Amx, DGE-Amp, and DGE-Amx) against the uropathogenic strain E. coli CFT073 were tested in 50% MHB, 30° C., t=19 h. 2,2′-dipyridyl (DP, 200 μM) was added to provide conditions of iron limitation.

[4] = test system: various E. coli strains; assay: Antibacterial activity against a panel of E. coli strains; format: cell-based, Escherichia coli; details: 6 strains of E. coli (K-12, B, H9049, 25922, UTI89, CFT073)
Experimental: as §1
Ampicillin and amoxicillin are β-lactam antibiotics that have periplasmic targets in Gram-negative bacteria and inhibit cell wall biosynthesis. The antibacterial activity of Ent-ampicillin and Ent-amoxicillin conjugates 44 and 45 was evaluated in vitro against a panel of Gram-negative and positive-bacteria.
Select Ent-β-lactam conjugates (Ent-Amp and Ent-Amx) and their glucosylated derivatives (MGE-Amp, MGE-Amx, DGE-Amp, and DGE-Amx) were tested against 6 strains of E. coli. Four of them are non-pathogenic strains, namely K-12, B, H9049, and 25922, and the other two are uropathogenic clinical isolates, namely UTI89 and CFT073.

[5] = test system: E. coli K-12; assay: Antimicrobial activity assay, E. coli K-12; format: cell-based, Escherichia coli; details: inhibition attributed to iron deprivation
Experimental: as §1
In an exemplary experiment, antibacterial activities of the conjugates were tested against E. coli K-12 in 50% MHB at 30° C., t=19 h. 2,2′-dipyridyl (DP, 200 μM) was added to provide conditions of iron limitation.

[6] = test system: uropathogenic E. coli and non-pathogenic E. coli; assay: Mixed culture assays (summary), uropathogenic and non-pathogenic E. coli; format: cell-based, Escherichia coli; details: uropathogenic with non-pathogenic E. coli
Description: No antibiotic marker was included in these cultures.

[7] = test system: E. coli UTI89; assay: Competition assay with native siderophores, E. coli UTI89; format: cell-based, Escherichia coli; details: conjugate 100 nM, varied Ent, MGE or DGE, 50% MHB, 200 μM DP, 30° C., t=19 h
Experimental: Ent was synthesized following a literature procedure^55 and stored as DMSO stock solution at −20° C. MGE and DGE were prepared from Ent using MceC and IroB as described for MGE-PEG3-N3 and DGE-PEG3-N3.
(§2) In an exemplary experiment, select conjugates (Ent-Amp, MGE-Amp, and DGE-Amp) with select native siderophores (Ent, MGE, and DGE) were tested against the uropathogenic strain E. coli UTI89 in 50% MHB, t=19 h, 30° C. […] The concentration of the conjugates was fixed at 100 nM, and the concentration of the native siderophores was varied. […] These observations indicate that Ent, MGE, Ent-Amp, and MGE-Amp may enter via both FepA and IroN with different efficiency, but DGE and DGE-Amp may only enter via IroN.
as §2, with “In another” for “In an”, “100 nM” for “100 nM,”

[8] = test system: E. coli CFT073; assay: Competition assay with native siderophores, E. coli CFT073; format: cell-based, Escherichia coli; details: conjugate 100 nM, varied Ent, MGE or DGE, 50% MHB, 200 μM DP, 30° C., t=19 h
Experimental: These assays were performed following the general procedure described herein except that varying concentrations of Ent, MGE, or DGE, each of which was unmodified, were mixed with Ent-Amp, Ent-Amx, MGE-Amp, MGE-Amx, DGE-Amp, or DGE-Amx. Ent was synthesized following a literature procedure^55 and stored as DMSO stock solution at −20° C. MGE and DGE were prepared from Ent using MceC and IroB as described for MGE-PEG3-N3 and DGE-PEG3-N3.
(§3) In another exemplary experiment, select conjugates (Ent-Amp, MGE-Amp, and DGE-Amp) with select native siderophores (Ent, MGE, and DGE) were tested against the uropathogenic strain E. coli CFT073 in 50% MHB, t=19 h, 30° C. 2,2′-dipyridyl (DP, 200 μM) was added to provide conditions of iron limitation. The concentration of the conjugates was fixed at 100 nM and the concentration of the native siderophores was varied.
as §3, with “(Ent-Amx, MGE-Amx,” for “(Ent-Amp, MGE-Amp,”, “DGE-Amx)” for “DGE-Amp)”, “DP (200” for “2,2′-dipyridyl (DP, 200”

[9] = test system: E. coli ATCC 33475 (ent-); format: cell-based, Escherichia coli
Experimental: General microbiology methods are as described herein or according to processes known in the art. […] Bacterial growth was assayed by measuring OD600 using a BioTek Synergy HT plate reader. Each well condition was prepared in duplicate and three independent replicates of each assay were conducted on different days. The resulting mean OD600 are reported and the error bars are the standard deviation of the mean obtained from the three independent replicates.
Three non-pathogenic E. coli strains were employed that are defective in enterobactin synthesis, enterobactin transport, or ferric enterobactin utilization in growth recovery assays. E. coli ATCC 33475 (ent-) cannot biosynthesize enterobactin, but retains the capacity to import and metabolize the siderophore.^71 E. coli H1187 (fepA-) lacks the outer membrane enterobactin receptor. E. coli K-12 JW0576 (fes-) can accumulate ferric enterobactin, but cannot release the iron because it is deficient in the enterobactin esterase Fes. As a result of these defects in iron metabolism, all three strains grow poorly under conditions of iron limitation.^71 The iron chelator 2,2′-dipyridyl (dipyridyl, DP) was used to generate iron-deficient conditions and promote expression of siderophore transport machinery in the growth recovery assays.

## CC1(C)SC2C(NC(=O)C(NC(=O)CCCc3cn(CCOCCOCCOCCNC(=O)c4cc(O)c(O)c(C(=O)NC5COC(=O)C(NC(=O)c6cc(C7OC(CO)C(O)C(O)C7O)cc(O)c6O)COC(=O)C(NC(=O)c6cccc(O)c6O)COC5=O)c4)nn3)c3ccc(O)cc3)C(=O)N2C1C(=O)O (stereo not drawn) [MGE-Amx]
[1]
  effect of lipocalin-2 (lcn2) on antibacterial activity: unaffected; also recorded: no effect; also recorded: not attenuated
[2]
  antibacterial activity relative to the unmodified antibiotic: enhanced antibacterial activity relative to unmodified Amx
[3]
  effect of preloading Fe(III) on antibacterial activity: no effect
[4]
  antibacterial activity against uropathogenic compared to non-pathogenic E. coli: greater antibacterial activity against the uropathogenic E. coli compared to non-pathogenic E. coli
[5]
  concentrations at which E. coli K-12 was inhibited: micromolar concentrations
[6]
  strain-specific growth inhibition in the mixed culture assays: specifically inhibited the growth of the uropathogenic E. coli
[7]
  attenuation of antibacterial activity by native siderophores: attenuated by Ent, MGE, or DGE
[8]
  attenuation of antibacterial activity by native siderophores: attenuated by Ent, MGE, or DGE

## CN[C@H](CC(C)C)C(=O)N[C@H]1C(=O)N[C@@H](CC(N)=O)C(=O)N[C@H]2C(=O)N[C@H]3C(=O)N[C@H](C(=O)N[C@H](C(=O)O)c4cc(O)cc(O)c4-c4cc3ccc4O)[C@H](O)c3ccc(c(Cl)c3)Oc3cc2cc(c3O[C@@H]2OC(CO)[C@@H](O)C(O)C2O[C@H]2CC(C)(N)[C@H](O)C(C)O2)Oc2ccc(cc2Cl)[C@H]1O (stereo partly drawn) [vancomycin, reference compound]
[9]; over the concentration range employed
  activity against E. coli: inactive against E. coli

## O=C(NCCOCCOCCOCCNC(=O)c1cc2cc3c4c(c2oc1=O)CCCN4CCC3)c1cc(O)c(O)c(C(=O)N[C@H]2COC(=O)[C@@H](NC(=O)c3cccc(O)c3O)COC(=O)[C@@H](NC(=O)c3cccc(O)c3O)COC2=O)c1 [conjugate 34, N^3-((3S,7S,11S)-7,11-Bis(2,3-dihydroxybenzamido)-2,6,10-trioxo-1,5,9-trioxacyclododecan-3-yl)-4,5-dihydroxy-N^1-(1-oxo-1-(11-oxo-2,3,5,6,7,1-hexahydro-1H-pyrano[2,3-f]pyrido[3,2,1-ij]quinolin-10-yl)-5,8,11-trioxa-2-azatridecan-13-yl)isophthalamide]
[9]; under iron limitation
  toxicity to E. coli: no toxicity

## O=C(NCCCCCC(=O)N1CCN(c2cc3c(cc2F)c(=O)c(C(=O)O)cn3C2CC2)CC1)c1cc(O)c(O)c(C(=O)N[C@H]2COC(=O)[C@@H](NC(=O)c3cccc(O)c3O)COC(=O)[C@@H](NC(=O)c3cccc(O)c3O)COC2=O)c1 [conjugate 40, 7-(4-(6-(3-(((3S,7S,11S)-7,11-Bis(2,3-dihydroxybenzamido)-2,6,10-trioxo-1,5,9-trioxacyclododecan-3-yl)carbamoyl)-4,5-dihydroxybenzamido)hexanoyl)piperazin-yl)-1-cyclopropyl-6-fluoro-4-oxo-1,4-dihydroquinoline-3-carboxylic acid]
[9]
  effect on E. coli growth in the absence of DP: concentration-dependent inhibition of E. coli growth

## O=C(NCCOCCOCCOCCC(=O)N1CCN(c2cc3c(cc2F)c(=O)c(C(=O)O)cn3C2CC2)CC1)c1cc(O)c(O)c(C(=O)N[C@H]2COC(=O)[C@@H](NC(=O)c3cccc(O)c3O)COC(=O)[C@@H](NC(=O)c3cccc(O)c3O)COC2=O)c1 [conjugate 35, 7-(4-(1-(3-(((3S,7S,11S)-7,11-Bis(2,3-dihydroxybenzamido)-2,6,10-trioxo-1,5,9-trioxacyclododecan-3-yl)carbamoyl)-4,5-dihydroxyphenyl)-1-oxo-5,8,11-trioxa-2-azatetradecan-14-oyl)piperazin-1-yl)-1-cyclopropyl-6-fluoro-4-oxo-1,4-dihydroquinoline-3-carboxylic acid]
[9]
  effect on E. coli growth in the absence of DP: concentration-dependent inhibition of E. coli growth

Reference: patent US9902986B2, “Enterobactin conjugates and uses thereof” (Massachusetts Institute of Technology, priority 2013, dated 2018)
